According to paper PMC9508125, “The evolutionary advantage of an aromatic clamp in plant family 3 glycoside exo-hydrolases” (Nature Communications, 2022):
Positions count from the first letter of the chain named.

Legend:
Assay in all cases: Steady-state apparent kinetic constants with substrates
Type in all cases: biochemical
Details in all cases: substance is the substrate
HvExoI W286F mutant = biological target: T1, HvExoI W286F mutant (Hordeum vulgare, UniProt Q9XEI3, W311F)
T1 sequence (Q9XEI3 26-630 W311F): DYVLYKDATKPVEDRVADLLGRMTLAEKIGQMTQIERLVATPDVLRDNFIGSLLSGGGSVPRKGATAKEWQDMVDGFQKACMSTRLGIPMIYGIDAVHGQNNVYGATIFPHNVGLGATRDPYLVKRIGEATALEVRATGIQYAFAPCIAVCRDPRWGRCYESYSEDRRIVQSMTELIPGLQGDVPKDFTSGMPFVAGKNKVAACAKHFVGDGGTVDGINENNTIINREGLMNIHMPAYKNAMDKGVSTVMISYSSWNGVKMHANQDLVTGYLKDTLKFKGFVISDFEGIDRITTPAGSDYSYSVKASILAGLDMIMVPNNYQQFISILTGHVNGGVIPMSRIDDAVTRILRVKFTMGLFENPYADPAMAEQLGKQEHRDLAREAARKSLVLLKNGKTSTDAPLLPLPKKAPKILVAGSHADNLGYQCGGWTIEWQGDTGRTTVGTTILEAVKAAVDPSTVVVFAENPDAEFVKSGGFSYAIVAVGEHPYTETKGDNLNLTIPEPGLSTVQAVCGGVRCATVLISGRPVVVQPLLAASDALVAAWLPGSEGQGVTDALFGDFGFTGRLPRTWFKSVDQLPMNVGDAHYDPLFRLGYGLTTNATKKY
Method: (§1) Dependency of activities of WT and mutant HvExoI on pH (McIlvaine buffers in the pH range of 3.5–8.5 at 30 °C) and temperature (100 mM sodium acetate buffer, pH 5.25, temperature range 0–80 °C, 15 min incubations) were determined using 0.2% (w/v) 4NP-Glc[21],[59]. Relative rates of hydrolysis of β-linked poly-, oligosaccharides, and aryl-glucosides were determined using near-homogenous HvExoI at 50 pmoles. […] Kinetic parameters were calculated from the analyses of Michaelis-Menten plots with Grafit 7.0.3[62] and processed by a proportional weighted fit, using nonlinear regression. The relative rates of hydrolysis, kinetic, and inhibition data were rounded to one or two decimal points (Supplementary Tables 2–4).

HvExoI W286Y mutant = biological target: T2, HvExoI W286Y mutant (Hordeum vulgare, UniProt Q9XEI3, W311Y)
T2 sequence (Q9XEI3 26-630 W311Y): T1 sequence (Q9XEI3 26-630 W311F) with F286Y
Method: as §1

[1] = biological target: T3, HvExoI W286F/W434F mutant (Hordeum vulgare, UniProt Q9XEI3, W311F/W459F)
T3 sequence (Q9XEI3 26-630 W311F/W459F): T1 sequence (Q9XEI3 26-630 W311F) with W434F
Method: as §1

HvExoI W434H mutant = biological target: T4, HvExoI W434H mutant (Hordeum vulgare, UniProt Q9XEI3, W459H)
T4 sequence (Q9XEI3 26-630 W459H): T1 sequence (Q9XEI3 26-630 W311F) with F286W, W434H
Method: as §1

Q: Which results are given for laminarin?
A: Km (HvExoI W286F mutant): 200 ± 10 µM; kcat (HvExoI W286F mutant): 4.5 ± 0.3 s⁻¹; Km (HvExoI W286Y mutant): 100 ± 10 µM; kcat (HvExoI W286Y mutant): 30.3 ± 2.4 s⁻¹; kcat [1]: 0.4 ± 0.1 s⁻¹; Km (HvExoI W434H mutant): 300 ± 20 µM; kcat (HvExoI W434H mutant): 8.5 ± 0.9 s⁻¹
